Results as given in patent EP0000190A1, “Solutions with a local anesthetic effect” (Dr. Karl Thomae GmbH, priority 1977, dated 1979).

Legend:
Cornea = assay: Local anaesthetic effect (touch stimulus) and corneal epithelium status after eye drops in rabbits, versus Kerakain; format: in vivo; conditions: Kaninchen
Description: Die überlegene kurzfristige lokalanästhetische Wirkung der neuen Lösungen wurde im Vergleich zu Proxymetacain (0,5%ige 2-Diäthyl-aminoäthyl-3-amino-4-propoxybenzoesäure-hydrochlorid-Lösung = Chibro® -Kerakain) am Kaninchen wie folgt geprüft: • Den Versuchstieren, die nach Spaltlampen-Untersuchung keine Schädigung des Cornea-Epithels zeigten und klinisch keine konjunktivale Entzündung aufwiesen, wurden jeweils 2 Tropfen der entsprechenden Augentropfen appliziert. Die Sensibilität der zentralen Cornea ist eine Minute nach Applikation durch Berührungsreiz, das gesamte Hornhautepithel und die Sensibilität 5, 10, 15 und 30 Minuten nach Applikation beurteilt worden. Der Untersuchen. der die Sensibilität und den Hornhaut-Epithel-Status beurteilte, war hierbei nicht darüber informiert, welches Auge jeden Tieres mit Chibro® -Kerakain behandelt war.
Die nachfolgende Tabelle enthält die aufgefundenen Versuchsergebnisse: […]

[1] = tested on: Mund- bzw. Rachenschleimhaut; assay: Local anaesthesia of human mouth and throat mucosa after spray from a metering pump valve; format: in vivo, Mensch; conditions: 2%ige NA 872-Lösung, 3-8 Hübe des Pump-Dosier-Ventils, Mund- bzw. Rachenschleimhaut des Menschen, 6 Probanden
Description: Die oben aufgezeigte Wirkung konnte unter Heranziehung des Aesthe-siometers nach Cochet und Bonnet am menschlichen Auge mit Tropf- bzw. bei der Anwendung als Spray-Applikation mit Hilfe des Pump-Dosier-Ventils an der Mund- bzw. Rachenschleimhaut bestätigt werden. Bei einer Konzentration von 0,5 bis 1 % NA 872 und der Appli kation von 1 bis 2 Tropfen pro Auge tritt die lokalanästhetische Wirkung innerhalb von 30 bis 60 Sekunden ein, die Wirkungsdauer betrug 15 bis 30 Minuten, bzw. bei der Applikation einer 2%igen NA 872-Lösung mittels 3-8 Hüben des Pump-Dosier-Ventils an der Mund- bzw.

Acute toxicity = conditions: mouse, in vivo, po, Maus, als Hydrochlorid
[2] = 0,5 % NA 872, 2 Tropfen, 5 Minuten nach Applikation
[3] = 1,0 % NA 872, 2 Tropfen, 5 Minuten nach Applikation
[4] = 1,0 % NA 872, 2 Tropfen, 10 Minuten nach Applikation
[5] = 1,0 % NA 872, 2 Tropfen, 15 Minuten nach Applikation
[6] = 2,0 % NA 872, 2 Tropfen, 5 Minuten nach Applikation
[7] = 2,0 % NA 872, 2 Tropfen, 10 Minuten nach Applikation
[8] = Augentropfen, conclusion from the table

Nc1c(Br)cc(Br)cc1CN[C@H]1CC[C@H](O)CC1 [NA 872, 2-Amino-3,5-dibrom-N-(trans-4-hydroxycyclohexyl)-benzylamin]
Erhobener Anästhesie-Befund (A) (Cornea; 0,5 % NA 872, 2 Tropfen, 1 Minute nach Applikation): ++
Erhobener Anästhesie-Befund (A) (Cornea; [2]): +
Hornhaut-Befund (HH) (Cornea; [2]): o.B.
Hornhaut-Befund (HH) (Cornea; 0,5 % NA 872, 2 Tropfen, 10 Minuten nach Applikation): o.B.
Hornhaut-Befund (HH) (Cornea; 0,5 % NA 872, 2 Tropfen, 15 Minuten nach Applikation): o.B.
Hornhaut-Befund (HH) (Cornea; 0,5 % NA 872, 2 Tropfen, 30 Minuten nach Applikation): o.B.
Erhobener Anästhesie-Befund (A) (Cornea; 1,0 % NA 872, 2 Tropfen, 1 Minute nach Applikation): ++
Erhobener Anästhesie-Befund (A) (Cornea; [3]): +
Hornhaut-Befund (HH) (Cornea; [3]): o.B.
Erhobener Anästhesie-Befund (A) (Cornea; [4]): +
Hornhaut-Befund (HH) (Cornea; [4]): o.B.
Erhobener Anästhesie-Befund (A) (Cornea; [5]): (+)
Hornhaut-Befund (HH) (Cornea; [5]): o.B.
Hornhaut-Befund (HH) (Cornea; 1,0 % NA 872, 2 Tropfen, 30 Minuten nach Applikation): o.B.
Erhobener Anästhesie-Befund (A) (Cornea; 2,0 % NA 872, 2 Tropfen, 1 Minute nach Applikation): ++
Erhobener Anästhesie-Befund (A) (Cornea; [6]): ++
Hornhaut-Befund (HH) (Cornea; [6]): o.B.
Erhobener Anästhesie-Befund (A) (Cornea; [7]): +
Hornhaut-Befund (HH) (Cornea; [7]): o.B.
Hornhaut-Befund (HH) (Cornea; 2,0 % NA 872, 2 Tropfen, 15 Minuten nach Applikation): o.B.
Hornhaut-Befund (HH) (Cornea; 2,0 % NA 872, 2 Tropfen, 30 Minuten nach Applikation): o.B.
Nebenwirkung auf das Epithel im Vergleich zur Vergleichslösung (Cornea; [8]): geringere Nebenwirkung auf das Epithel
lokalanästhetische Wirkung im Vergleich zur Vergleichslösung (Cornea; [8]): kürzere lokalanästhetische Wirkung als die Vergleichslösung
Anästhesie [1]: leichte Anästhesie
LD50 (Acute toxicity): 2720 mg/kg
